# Patent US20230183188A1, “ENPP1 MODULATORS AND USES THEREOF” (Vir Biotechnology, Inc., priority 2020, published 2023)
# Molecular target: T1, recombinant protein containing the human ENPP1 enzymatic domain (Homo sapiens, UniProt P22413)
# T1 construct: recombinant protein containing the human ENPP1 enzymatic domain; purchased R&D Systems 6136-EN-010
# T1 sequence (P22413 191-591 limits assumed): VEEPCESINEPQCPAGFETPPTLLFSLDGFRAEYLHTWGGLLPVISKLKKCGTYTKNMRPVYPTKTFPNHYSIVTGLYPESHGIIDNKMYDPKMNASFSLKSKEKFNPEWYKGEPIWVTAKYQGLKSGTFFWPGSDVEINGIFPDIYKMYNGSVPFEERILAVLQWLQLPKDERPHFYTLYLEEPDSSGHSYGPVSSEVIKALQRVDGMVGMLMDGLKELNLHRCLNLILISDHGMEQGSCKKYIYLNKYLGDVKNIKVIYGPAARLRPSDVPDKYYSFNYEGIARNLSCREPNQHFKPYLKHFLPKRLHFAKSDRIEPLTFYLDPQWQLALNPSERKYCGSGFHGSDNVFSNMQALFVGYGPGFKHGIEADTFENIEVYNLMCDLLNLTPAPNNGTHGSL
# Experiment: ENPP1 Enzymatic Inhibition Assay (2′3′-cGAMP substrate, AMP-Glo luminescence)
# Assay type: biochemical
# Conditions: 1 nM ENPP1, 20 uM 2′3′-cGAMP substrate, 30 minutes at 37° C.
# Experimental: The inhibition of ENPP1's phosphodiesterase activity were tested in a purified enzymatic assay using 2′3′-cyclic GAMP as a substrate which allowed for the release of cleaved AMP to be monitored using a luminescent assay.
# Putative inhibitors were diluted in assay buffer (50 mM Tris pH 8.0, 250 mM NaCl, 0.5 mM CaCl2, 1 uM ZnCl2, 1% DMSO) and pre-incubated for 15 minutes at 37° C. with recombinant protein containing the human ENPP1 enzymatic domain (R&D Systems cat. #6136-EN-010). The enzymatic reaction was initiated upon addition of the 2′3′-cGAMP substrate. The final reaction concentrations were 1 nM ENPP1 and 20 uM 2′3′-cGAMP substrate in a 25 uL volume. Inhibitor concentrations ranged from 10 uM to 0.2 nM. The reaction was incubated for 30 minutes at 37° C.
# After reacting for 30 minutes, the amount of AMP generated from the cleavage of 2′3′-cGAMP was determined using the Promega AMP-Glo method according to the manufacturer's protocol. First, AMP-Glo reagent 1 was added and incubated with the reaction mix for 1 hour at room temperature. Second, AMP Detection solution was added and the mixture was incubated for an additional hour. The luminescence of the mixture was read on a Perkin Elmer Ensight plate reader.
# The maximum and minimum levels of ENPP1 activity were established using no inhibitor and no enzyme controls, respectively. The activity observed using ENPP1 inhibitors was quantified as the percent of activity relative to these controls. IC50 values were calculated using GraphPad Prism by fitting a sigmoidal variable slope nonlinear regression model to the data.
row,SMILES,IC50 [nM]
1,"COc1ccc2c(Oc3ccc(S(N)(=O)=NC[C@@H]4CCCN4)cc3)ccnc2c1 (stereo partly drawn) [Compound 44, 4-((7-methoxyquinolin-4-yl)oxy)-N′-(((S)-pyrrolidin-2-yl)methyl)benzenesulfonimidamide]",10 to 100
2,"COc1ccc2c(Nc3ccc(S(=N)(=O)N(C)C)cc3)ncnc2c1 (stereo not shown) [Compound 42, 4-((7-methoxyquinazolin-4-yl)amino)-N,N-dimethylbenzenesulfonimidamide]",10 to 100
3,"COc1ccc2c(Oc3ccc(S(=N)(=O)NC[C@H](O)CO)cc3)ccnc2c1 (single isomer, unassigned) [Compound 46]",< 10
4,"COc1ccc2c(Oc3ccc(S(N)(=O)=NCCOc4ccccn4)cc3)ccnc2c1 (stereo not shown) [Compound 12, 4-((7-methoxyquinolin-4-yl)oxy)-N′-(2-(pyridin-2-yloxy)ethyl)benzenesulfonimidamide]",< 10
5,"COc1ccc2c(Oc3ccc(S(N)(=O)=NCc4nccn4C)cc3)ccnc2c1 (stereo not shown) [Compound 16, 4-((7-methoxyquinolin-4-yl)oxy)-N′-((1-methyl-1H-imidazol-2-yl)methyl)benzenesulfonimidamide]",< 10
6,"COc1ccc2c(Oc3ccc(S(N)(=O)=NCc4ccncc4)cc3)ccnc2c1 (stereo not shown) [Compound 28, 4-((7-methoxyquinolin-4-yl)oxy)-N′-(pyridin-4-ylmethyl)benzenesulfon imidamide]",10 to 100
7,"CN=S(N)(=O)c1ccc(Nc2ncnc3cc(OC)ccc23)cc1 (stereo not shown) [Compound 2, 4-((7-methoxyquinazolin-4-yl)amino)-N-methylbenzenesulfonimidamide]",< 10
8,"COc1ccc2c(Oc3ccc(S(N)(=O)=NCCOc4ccncc4)cc3)ccnc2c1 (stereo not shown) [Compound 14, 4-((7-methoxyquinolin-4-yl)oxy)-N′-(2-(pyridin-4-yloxy)ethyl)benzenesulfonimidamide]",< 10
9,"COc1ccc2c(Oc3ccc(S(N)(=O)=NCC4CC4)cc3)ccnc2c1 (stereo not shown) [Compound 1, N′-(cyclopropylmethyl)-4-((7-methoxyquinolin-4-yl)oxy)benzenesulfonimidamide]",< 10
10,"COc1ccc2c(Oc3ccc(S(=N)(=O)N4CCOCC4)cc3)ccnc2c1 (stereo not shown) [Compound 18, 4-(4-((7-methoxyquinolin-4-yl)oxy)phenylsulfonimidoyl)morpholine]",> 100
